Assay [1] deals with histamine receptor H1 (Homo sapiens, UniProt P35367). Description: Histamine H1 radioligand binding ([3H]Pyrilamine). The note with it: read-out: Histamine Binding (1 μM) H1, percent inhibition of specific binding, 1 μM. Put shortly:
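Values are percent inhibition of specific [3H]pyrilamine (1.2 nM) binding with compounds at ≤1 μM (1% DMSO vehicle); 180 min incubation at 25 °C, pH 7.4 Tris buffer, on CHO-expressed human H1 receptor; 1 μM pyrilamine defined nonspecific binding, bound ligand counted after filtration.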

Assay [2] addresses human dopamine D2L receptor (Homo sapiens, UniProt P14416). Description: Dopamine D2L radioligand binding ([3H]Spiperone). The conditions noted are these: percent inhibition of specific binding, compound at 1 μM; for inhibition at 1 µM: read-out: Inhibition of ligand binding, Dopamine D2L. An excerpt:
Non-specific binding was estimated in the presence of […] Haloperidol. Receptor proteins were filtered and washed, the filters were then counted to determine [^3H]Spiperone specifically bound. […] Biochemical assay results are presented as the percent inhibition of specific binding in Table 9.

Assay [3] has as its target T1, human recombinant serotonin (5-Hydroxytryptamine) 5-HT2A receptor (Homo sapiens, UniProt P28223).
T1 construct: expressed in transfected cells; host or cells: Chinese hamster ovary (CHO-K1) cells
Description: Serotonin 5-HT2A radioligand binding ([3H]Ketanserin). The note with it: for inhibition at 0.1 µM: read-out: Inhibition of ligand binding, Serotonin 5-HT2A (percent inhibition of specific binding), compound at 0.1 μM. The method, then:
Compounds of the invention were incubated with 0.5 nM [^3H]Ketanserin for 60 min. at 25° C. Non-specific binding was estimated in the presence of 1 μM Mianserin. Receptor proteins were filtered and washed, the filters were then counted to determine [^3H]Ketanserin specifically bound.

For assay [4], the target named is T2, human recombinant serotonin (5-Hydroxytryptamine) 5-HT2C receptor (Homo sapiens, UniProt P28335).
T2 construct: expressed in transfected cells; host or cells: Chinese hamster ovary (CHO-K1) cells
T2 sequence (P28335 33-458): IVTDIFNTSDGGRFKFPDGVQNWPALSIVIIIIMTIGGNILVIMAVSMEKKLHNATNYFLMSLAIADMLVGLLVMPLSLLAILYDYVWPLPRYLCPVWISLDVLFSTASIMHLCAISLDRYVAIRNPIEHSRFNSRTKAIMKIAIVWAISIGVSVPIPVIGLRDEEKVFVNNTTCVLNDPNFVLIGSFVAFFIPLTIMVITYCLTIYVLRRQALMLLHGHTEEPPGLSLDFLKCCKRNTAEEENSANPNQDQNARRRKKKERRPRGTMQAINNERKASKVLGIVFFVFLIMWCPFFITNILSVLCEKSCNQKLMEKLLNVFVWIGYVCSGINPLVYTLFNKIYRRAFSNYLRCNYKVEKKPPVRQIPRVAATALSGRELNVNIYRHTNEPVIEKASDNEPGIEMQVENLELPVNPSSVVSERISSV
Nature of the assay: Serotonin 5-HT2C radioligand binding ([3H]Mesulergine). The note with it: compound at 0.1 μM; for inhibition at 0.1 µM: read-out: Inhibition of ligand binding, Serotonin 5-HT2C (percent inhibition of specific binding). The method, then: Compounds of the invention were incubated with 1 nM [^3H]Mesulergine for 60 min. at 25° C. Non-specific binding was estimated in the presence of 1 μM Mianserin. Receptor proteins were filtered and washed, the filters were then counted to determine [^3H]Mesulergine specifically bound. Compounds were screened at 1 μM or lower, using 1% DMSO as vehicle. Biochemical assay results are presented as the percent inhibition of specific binding in Table 10.

Assay [5] has as its target T3, human recombinant serotonin (5-Hydroxytryptamine) 5-HT6 receptor (Homo sapiens, UniProt P50406).
T3 construct: expressed in transfected cells; host or cells: human HeLa cells
Description: Serotonin 5-HT6 radioligand binding ([3H]LSD). The note with it: compound at 0.1 μM; for inhibition at 0.1 µM: read-out: Inhibition of ligand binding, Serotonin 5-HT6 (percent inhibition of specific binding). The method, then: Compounds of the invention were incubated with 1.5 nM [3H]Lysergic acid diethylamide (LSD) for 120 min. at 37° C. […] Receptor proteins were filtered and washed, the filters were then counted to determine [3H]LSD specifically bound. Compounds were screened at 1 μM or lower, using 1% DMSO as vehicle. Biochemical assay results are presented as the percent inhibition of specific binding in Table 10.

Assay [6] has as its target human recombinant serotonin (5-Hydroxytryptamine) 5-HT7 receptor (Homo sapiens, UniProt P34969). Description: Serotonin 5-HT7 radioligand binding ([3H]LSD). The conditions noted are these: compound at 0.1 μM; for inhibition at 0.1 µM: read-out: Inhibition of ligand binding, Serotonin 5-HT7 (percent inhibition of specific binding). The source says:
Receptor proteins were filtered and washed, the filters were then counted to determine [^3H]LSD specifically bound.

T3 sequence (P50406 whole entry): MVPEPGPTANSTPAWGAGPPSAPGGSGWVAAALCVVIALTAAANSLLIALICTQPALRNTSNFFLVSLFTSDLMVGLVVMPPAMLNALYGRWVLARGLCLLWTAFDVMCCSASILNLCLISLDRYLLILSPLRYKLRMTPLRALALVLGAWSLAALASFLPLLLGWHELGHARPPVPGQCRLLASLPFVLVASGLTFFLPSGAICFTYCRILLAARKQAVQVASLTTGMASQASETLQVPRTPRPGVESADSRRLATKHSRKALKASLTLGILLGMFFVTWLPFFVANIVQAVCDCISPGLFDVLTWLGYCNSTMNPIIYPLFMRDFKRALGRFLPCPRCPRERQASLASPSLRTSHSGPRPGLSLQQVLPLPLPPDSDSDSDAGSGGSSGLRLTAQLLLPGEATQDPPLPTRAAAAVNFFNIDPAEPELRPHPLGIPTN
Sequence of human dopamine D2L receptor (P14416 whole entry): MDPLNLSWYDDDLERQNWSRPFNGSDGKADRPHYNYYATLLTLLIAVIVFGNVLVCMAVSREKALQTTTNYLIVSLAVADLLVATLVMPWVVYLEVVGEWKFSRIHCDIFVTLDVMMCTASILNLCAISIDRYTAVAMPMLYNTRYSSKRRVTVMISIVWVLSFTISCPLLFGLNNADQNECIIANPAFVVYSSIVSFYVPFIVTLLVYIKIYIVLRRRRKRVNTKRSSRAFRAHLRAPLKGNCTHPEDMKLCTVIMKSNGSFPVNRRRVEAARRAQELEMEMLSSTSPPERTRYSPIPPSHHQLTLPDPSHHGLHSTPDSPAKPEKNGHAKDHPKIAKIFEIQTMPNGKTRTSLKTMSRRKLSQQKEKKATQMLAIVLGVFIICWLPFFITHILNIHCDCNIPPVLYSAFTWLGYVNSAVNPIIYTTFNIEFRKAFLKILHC
Sequence of histamine receptor H1 (P35367 whole entry): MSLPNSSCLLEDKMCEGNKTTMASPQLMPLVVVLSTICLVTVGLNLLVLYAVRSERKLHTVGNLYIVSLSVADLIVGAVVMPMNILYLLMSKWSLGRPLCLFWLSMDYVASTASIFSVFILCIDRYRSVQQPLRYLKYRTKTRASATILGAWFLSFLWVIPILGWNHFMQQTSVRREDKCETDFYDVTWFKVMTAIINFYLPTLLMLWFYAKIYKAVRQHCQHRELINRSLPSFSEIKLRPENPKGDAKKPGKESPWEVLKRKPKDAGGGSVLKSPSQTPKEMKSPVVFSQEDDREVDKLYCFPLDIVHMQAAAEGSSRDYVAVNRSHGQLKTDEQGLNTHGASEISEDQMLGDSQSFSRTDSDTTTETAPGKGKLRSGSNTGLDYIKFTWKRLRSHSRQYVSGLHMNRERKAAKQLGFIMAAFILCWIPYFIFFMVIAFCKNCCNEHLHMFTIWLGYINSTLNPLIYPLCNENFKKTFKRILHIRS
T1 sequence (P28223 whole entry): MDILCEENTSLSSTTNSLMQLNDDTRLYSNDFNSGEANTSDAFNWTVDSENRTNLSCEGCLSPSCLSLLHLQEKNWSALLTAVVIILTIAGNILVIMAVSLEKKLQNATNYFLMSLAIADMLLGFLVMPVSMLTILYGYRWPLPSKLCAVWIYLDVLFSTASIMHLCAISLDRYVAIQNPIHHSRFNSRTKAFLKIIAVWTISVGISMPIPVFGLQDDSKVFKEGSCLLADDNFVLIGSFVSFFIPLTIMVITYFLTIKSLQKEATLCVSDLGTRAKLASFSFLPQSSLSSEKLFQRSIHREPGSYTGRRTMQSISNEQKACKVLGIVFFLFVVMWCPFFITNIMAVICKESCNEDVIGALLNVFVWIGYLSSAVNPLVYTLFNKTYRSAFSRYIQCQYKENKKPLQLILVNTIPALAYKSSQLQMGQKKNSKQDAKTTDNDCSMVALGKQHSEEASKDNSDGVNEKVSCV
Sequence of human recombinant serotonin (5-Hydroxytryptamine) 5-HT7 receptor (P34969 whole entry): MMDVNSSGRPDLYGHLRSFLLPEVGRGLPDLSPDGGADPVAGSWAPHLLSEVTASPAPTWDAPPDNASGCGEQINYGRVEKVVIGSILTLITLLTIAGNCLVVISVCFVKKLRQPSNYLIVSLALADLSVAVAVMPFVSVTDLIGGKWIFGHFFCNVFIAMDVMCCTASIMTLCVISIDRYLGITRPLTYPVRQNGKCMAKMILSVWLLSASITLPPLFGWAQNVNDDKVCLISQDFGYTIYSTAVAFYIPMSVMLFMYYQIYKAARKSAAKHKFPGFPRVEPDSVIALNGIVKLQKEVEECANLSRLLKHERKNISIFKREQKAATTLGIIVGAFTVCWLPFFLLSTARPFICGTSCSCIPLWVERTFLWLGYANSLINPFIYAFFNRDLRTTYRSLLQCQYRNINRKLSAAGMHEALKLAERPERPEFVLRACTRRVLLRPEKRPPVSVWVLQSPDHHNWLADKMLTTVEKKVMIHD

The inhibition is the drop in the measured response relative to a control, in per cent. Turning to `Cc1ccc2c(c1)c1c(n2CC(C)(O)c2cnccn2)CCN(C)C1` (stereo not drawn) [Compound 200, 1-(2,8-dimethyl-3,4-dihydro-1H-pyrido[4,3-b]indol-5(2H)-yl)-2-(pyrazin-2-yl)propan-2-ol], the inhibition at 1 µM worked out at 45% in assay [1] and 6% in assay [2]. Further, the inhibition at 0.1 µM in assay [3] is 30%; in assay [4], 17%; in assay [5], 20%; in assay [6] it was 31%.
Consider `C/C(=C\n1c2c(c3cc(Cl)ccc31)CN(C)CC2)c1ccc(F)cc1F` [Compound 277, (E)-8-chloro-5-(2-(2,4-difluorophenyl)prop-1-enyl)-2-methyl-2,3,4,5-tetrahydro-1H-pyrido[4,3-b]indole], for which the inhibition at 1 µM in assay [1] is 95%. The “Inhibition of ligand binding, Dopamine D2L” value in assay [2] (1 µM) was 98%. Also, the “Inhibition of ligand binding, Serotonin 5-HT2A (percent inhibition of specific binding)” value in assay [3] (compound at 0.1 μM, 0.1 µM) was 100%. Further, the “Inhibition of ligand binding, Serotonin 5-HT2C (percent inhibition of specific binding)” value in assay [4] (0.1 µM) is recorded as 98%. The “Inhibition of ligand binding, Serotonin 5-HT6 (percent inhibition of specific binding)” value in assay [5] (0.1 µM) is 98%. Moreover, the “Inhibition of ligand binding, Serotonin 5-HT7 (percent inhibition of specific binding)” value in assay [6] (0.1 µM) was 103%.
As for `CC/C(=C/n1c2c(c3cc(C)ccc31)CN(C)CC2)c1ccncc1` [Compound 281, (Z)-2,8-dimethyl-5-(2-(pyridin-4-yl)but-1-enyl)-2,3,4,5-tetrahydro-1H-pyrido[4,3-b]indole], the figures for the inhibition at 1 µM in assay [1] and in assay [2] were 42% and 51%, respectively. Also, the inhibition at 0.1 µM was found to be 103% in assay [3], 96% in assay [4], 78% in assay [5] and 93% in assay [6].
On to `C/C(=C\n1c2c(c3cc(Cl)ccc31)CN(C)C(C)C2)c1ccc(C)nc1` (stereo not drawn) [Compound 273, (E)-8-chloro-2,3-dimethyl-5-(2-(6-methylpyridin-3-yl)prop-1-enyl)-2,3,4,5-tetrahydro-1H-pyrido[4,3-b]indole], for which the inhibition at 1 µM was 41% in assay [1] and 12% in assay [2]. In addition, the inhibition at 0.1 µM amounted to 94% in assay [3], 100% in assay [4], 46% in assay [5] and 85% in assay [6].
Regarding `C/C(=C\n1c2c(c3cccc(Cl)c31)CN(C)CC2)c1ccc(C)nc1` [Compound 252, (E)-6-chloro-2-methyl-5-(2-(6-methylpyridin-3-yl)prop-1-enyl)-2,3,4,5-tetrahydro-1H-pyrido[4,3-b]indole], the values for the inhibition at 1 µM in assay [1] and in assay [2] were 22% and 13%, respectively. Also, the inhibition at 0.1 µM in assay [3] was 67%; in assay [4] it was 50%; in assay [5], 9%; in assay [6], 23%.
For `C/C(=C\n1c2c(c3cccc(F)c31)CN(C)CC2)c1ccc(C)nc1` [Compound 260, (E)-6-fluoro-2-methyl-5-(2-(6-methylpyridin-3-yl)prop-1-enyl)-2,3,4,5-tetrahydro-1H-pyrido[4,3-b]indole], the inhibition at 1 µM in assay [1] is -19%; in assay [2], 9%. Further, the inhibition at 0.1 µM is 34% in assay [3], 29% in assay [4], -7% in assay [5] and 5% in assay [6].
With `C/C(=C\n1c2c(c3cc(C)ccc31)CN(C)CC2)c1ccccn1` [Compound 278, (E)-2,8-dimethyl-5-(2-(pyridin-2-yl)prop-1-enyl)-2,3,4,5-tetrahydro-1H-pyrido[4,3-b]indole], the results for the inhibition at 1 µM in assay [1] and in assay [2] were 24% and 51%, respectively. In addition, the inhibition at 0.1 µM in assay [3] worked out at 88%; in assay [4], 91%; in assay [5], 69%; in assay [6] it was 79%.
As for `C/C(=C\n1c2c(c3cc(C(C)(C)C)ccc31)CN(C)CC2)c1ccncc1` [Compound 271, (E)-8-tert-butyl-2-methyl-5-(2-(pyridin-4-yl)prop-1-enyl)-2,3,4,5-tetrahydro-1H-pyrido[4,3-b]indole], the results for the inhibition at 1 µM in assay [1] and in assay [2] were -16% and 63%, respectively. For the same molecule, the inhibition at 0.1 µM in assay [3] turned out to be 41%; in assay [4], 19%; in assay [5] it was 90%; in assay [6], 10%.
As to `CCc1ccc2c(c1)c1c(n2/C=C(\C)c2ccncc2)CCN(C)C1` [Compound 270, (E)-8-ethyl-2-methyl-5-(2-(pyridin-4-yl)prop-1-enyl)-2,3,4,5-tetrahydro-1H-pyrido[4,3-b]indole], the figures for the inhibition at 1 µM in assay [1] and in assay [2] were 19% and 88%, respectively. Moreover, the inhibition at 0.1 µM in assay [3] worked out at 92%; in assay [4], 84%; in assay [5], 97%; in assay [6] it was 79%.
`C/C(=C\n1c2c(c3cc(C)ccc31)CN(C)C(C)C2)c1ccncc1` (stereo not drawn) [Compound 257, (E)-2,3,8-trimethyl-5-(2-(pyridin-4-yl)prop-1-enyl)-2,3,4,5-tetrahydro-1H-pyrido[4,3-b]indole]: the inhibition at 1 µM was 18% in assay [1] and 72% in assay [2]. Besides, the inhibition at 0.1 µM was 94% in assay [3], 94% in assay [4], 71% in assay [5] and 75% in assay [6].
Consider `C/C(=C\n1c2c(c3cc(C)ccc31)CN(C(C)C)CC2)c1ccncc1` [Compound 272, (E)-2-isopropyl-8-methyl-5-(2-(pyridin-4-yl)prop-1-enyl)-2,3,4,5-tetrahydro-1H-pyrido[4,3-b]indole], for which the figures for the inhibition at 1 µM in assay [1] and in assay [2] were 48% and 85%, respectively. Further, the inhibition at 0.1 µM in assay [3] is 62%; in assay [4], 40%; in assay [5], 98%; in assay [6] it was -1%.
With `C/C(=C\n1c2c(c3cc(F)ccc31)CN(C)CC2)c1ccc(C)nc1` [Compound 251, (E)-8-fluoro-2-methyl-5-(2-(6-methylpyridin-3-yl)prop-1-enyl)-2,3,4,5-tetrahydro-1H-pyrido[4,3-b]indole], the inhibition at 1 µM turned out to be 15% in assay [1] and 25% in assay [2]. In addition, the inhibition at 0.1 µM worked out at 85% in assay [3], 77% in assay [4], 8% in assay [5] and 74% in assay [6].
Turning to `C/C(=C\n1c2c(c3cc(Cl)ccc31)CN(C)C(C)C2)c1ccc(F)cc1` (stereo not drawn) [Compound 262, (E)-8-chloro-5-(2-(4-fluorophenyl)prop-1-enyl)-2,3-dimethyl-2,3,4,5-tetrahydro-1H-pyrido[4,3-b]indole], the figures for the inhibition at 1 µM in assay [1] and in assay [2] were 66% and 97%, respectively. Further, the inhibition at 0.1 µM was 99% in assay [3], 100% in assay [4], 99% in assay [5] and 94% in assay [6].
As to `CCC(O)(Cn1c2c(c3cc(C)ccc31)CN(C)CC2)c1ccncc1` (stereo not drawn) [Compound 196, 1-(2,8-dimethyl-3,4-dihydro-1H-pyrido[4,3-b]indol-5(2H)-yl)-2-(pyridin-4-yl)butan-2-ol], the inhibition at 1 µM in assay [1] is 19%; in assay [2] it was 9%. Further, the inhibition at 0.1 µM in assay [3] came out at 36%; in assay [4], 8%; in assay [5], 10%; in assay [6], 12%.

For the origin of these results see patent publication US8906925B2, “Pyrido[4,3-B]indoles containing rigid moieties” (Medivation Technologies, Inc., priority 2008, dated 2014).
